Test results from patent US11110079B2, “Mebendazole polymorph for treatment and prevention of tumors” (THE JOHNS HOPKINS UNIVERSITY, priority 2015, dated 2021).
pIC50: −log10 of the molar value.

What was measured:
[1] = human; cited from earlier work
[2] = mice; cited from earlier work
HT29 = HT29 colon cancer flank xenograft; assay type: in vivo, Nude mice
Procedure: (§1) FIGS. 9A-9E. […] Two human colorectal carcinoma cell lines, HT29 and SW480, were implanted subcutaneously into the flanks of Nude mice and treated for four weeks with 50 mg/kg MBZ by oral gavage. Tumor volumes were measured twice weekly, averaged, and plotted over the course of the experiment. HT29 xenograft (FIG. 9A) and SW480 xenograft (B) growth inhibitory curves. Resected flank tumors from each group were weighed at the end of the experiment and compared to untreated control (FIG. 9C, FIG. 9D) Paraffin-embedded flank tumor tissues were stained for Ki67 proliferation marker. […] Five randomly selected fields from each slide were quantified as the percent Ki67-positive cell×100/total number of cells and represent the mean+SEM of five animals. *, P<0.05.

in vivo = conditions: mouse
Procedure: Female C57BL6 mice, 5-6 weeks of age, were purchased from NCl. Animal experimentation was conducted under an approved IACUC protocol and complied with local and national guidelines. All MBZ polymorphs and tablets were administered by oral gavage at a dose of 50 mg/kg. Elacridar was administered by oral gavage at 50 mg/kg 2 hours prior to the administration of MBZ-C. Mice (3 animals/time point) were first anesthetized via intraperitoneal injection of 60 μl of a stock solution containing ketamine hydrochloride (75 mg/kg) (100 mg/ml; Ketamine HCl; Abbot Laboratories, Chicago, Ill., USA) and xylazine (7.5 mg/kg) (100 mg/ml; Xyla-ject®, Phoenix Pharmaceutical, St. Joseph, Mo., USA) in a sterile 0.9% NaCl solution. Then the blood samples were taken by puncturing and aspiring from the left heart ventricle. Blood samples were mixed with 5 mM EDTA and centrifuged at 10000 g for 5 min to obtain the plasma for further analysis.
For brain distribution studies, mice were perfused under anesthesia with 20 ml ice-cold saline supplemented with 20 μl of 0.02% heparin by injecting slowly into the left heart ventricle using a 20 gauge needle. The right atrium was cut open before to allow the blood outflow. The yellow color of kidney indicated a good perfusion quality that was essential to deplete blood from the brain tissue. In GL261 tumor-bearing mice, GL261 tumor was distinguished from the normal brain by easily recognizable differences in color and shade. GL261 tumor was separated with a scalpel and the normal brain tissue was cut from the contralateral hemisphere. All brain samples were weighed and stored at −80° C. before processing.
Blood, brain and brain tumor tissues were harvested as a function of time after MBZ administration. To compare the pharmacokinetics of MBZ polymorphs, three cohorts of mice each were administered a single dose of 50 mg/kg by oral gavage. For the initial comparison studies, plasma samples were obtained at 1, 2.5, 4, 6, 8, 15, and 24 hours after MBZ administration while brain tissue was only collected at 6 hours. For the comparison studies of polymorph C with or without ELD, plasma and brain tissue samples were obtained at 2.5, 4, and 8 hours after MBZ administration. Brain tumor tissue samples were also obtained for polymorph C alone.
MBZ and the two metabolites, 2-amino-5-benzoyl-benzimidazole (MBZ-NH2, CAS 52329-60-9) and rac dihydro mebendazole (MBZ-OH, CAS 60254-95-7), were quantified in plasma, brain and brain tumor tissue. Tissue homogenates were prepared at a concentration of 200 mg/ml in plasma prior to extraction. Mebendazole and metabolites were extracted from 50 μl of plasma or tissue homogenates with 0.1 ml of methanol containing 0.5 μg/ml of the internal standard A620223.69. After centrifugation, the supernatant (60 μl) was mixed with water (40 μl) and then transferred into autosampler vials. […] The analytes were monitored using an AB Sciex triple quadrapole™ 5500 mass-spectrometric detector (Applied Biosystems, Foster City, Calif., USA) using electrospray ionization operating in positive mode. The spectrometer was programmed to allow the [MH+] ions of MBZ, MBZ-NH2, MBZ-OH, and A620223.69 at m/z 296.0, 238.0, 298.0, and 287.2, respectively to pass through the first quadrupole (Q1) and into the collision cell (Q2). The daughter ions for MBZ (m/z 263.9), MBZ-NH2 (m/z 105.1), MBZ-OH (m/z 266.0), and A620223.69 (m/z 124.1) were monitored through the third quadrupole (Q3). Calibration curves for MBZ and metabolites were computed using the area ratio peak of the analysis to the internal standard by using a quadratic equation with a 1/x weighting function over the range of 5 to 500 ng/ml (MBZ) and 1 to 500 ng/ml (metabolites) with dilutions of up to 1:100 (v:v). If one or more concentrations were below limits of quantification, a value of ½ the limit of quantification was assigned for pharmacokinetic calculations.

GL261-luc glioma = conditions: GL261, single agent 50 mg/kg; control 29.5 days
Procedure: All animal studies were approved by the Animal Care and Use Committee (ACUC) of the Johns Hopkins University. The intracranial implantation of GL261-luc in the frontal lobe and D425 cells in the cerebellum of the mouse brain followed the procedure described before (3,4). […] MBZ and other benzimidazoles were prepared by either mixing the power with PBS and sesame oil (1:1, v:v) (Sigma) or by grinding the tablets to powder and resuspending in the aforementioned PBS/sesame oil mixture. Elacridar was prepared as a 10 mg/ml suspension in 0.5% hydroxypropylmethylcellulose and 0.5% Tween 80 in PBS similarly as described before (15).
Animal survival data were analyzed by GraphPad Prism 5.0. The p-values were determined by a Mantel-Cox test. A p-value under 0.05 was accepted as statistically significant.

SW480 = SW480 colon cancer flank xenograft; assay type: in vivo, Nude mice
Procedure: as §1

[3] = test system: polyps in the intestine of APC min/+ mice; assay: APC min/+ mouse chemoprevention study (intestinal polyps); assay type: in vivo
Procedure: The average number of polyps for each treatment group were graphed for the proximal, middle and distal small intestines and colon (FIG. 11A). Individual polyps were measured and categorized based on size. The average number of polyps for Sulindac versus the combiniation of MBZ+Sulindac were analyzed separately for each section of the intestine (FIG. 11B).

[4] = test system: glioma and medulloblastoma cell lines; conditions: tissue culture; cited from earlier work
D425 medulloblastoma = assay: Orthotopic D425 medulloblastoma xenograft model (survival); assay type: in vivo, mouse; conditions: orthotopic D425 medulloblastoma xenograft; MBZ-C 50 mg/kg five days a week, elacridar 50 mg/kg 7 days
Procedure: The intracranial implantation of GL261-luc in the frontal lobe and D425 cells in the cerebellum of the mouse brain followed the procedure described before (3,4). Five days after tumor implantation, mice were gavaged with MBZ or the other benzimidazoles at 50 mg/kg five days a week. MBZ and other benzimidazoles were prepared by either mixing the power with PBS and sesame oil (1:1, v:v) (Sigma) or by grinding the tablets to powder and resuspending in the aforementioned PBS/sesame oil mixture. Elacridar was prepared as a 10 mg/ml suspension in 0.5% hydroxypropylmethylcellulose and 0.5% Tween 80 in PBS similarly as described before (15).

Row | SMILES | cerebrospinal fluid (CSF)/plasma ratio [1] | B/P ratio [2] | Ki67 proliferation marker staining (HT29; HT29 flank tumor tissue) | c-myc and Bcl-2 protein expression (HT29; HT29 flank xenograft lysates) | tumor growth and proliferation (HT29; HT29 xenograft, 50 mg/kg MBZ oral gavage four weeks) | effect of ELD on average B/P ratios of MBZ (in vivo) | distribution in GL261 brain tumor vs contralateral normal brain tissue (in vivo; po, 50 mg/kg) | median survival (GL261-luc glioma) | Ki67 proliferation marker staining (SW480; SW480 flank tumor tissue) | c-myc and Bcl-2 protein expression (SW480; SW480 flank xenograft lysates) | tumor growth and proliferation (SW480; SW480 xenograft, 50 mg/kg MBZ oral gavage four weeks) | formation, occurrence and size of polyps [3] | pIC50 [4] | median survival (D425 medulloblastoma)
1 | Cn1nnc2c(C(N)=O)ncn2c1=O [temozolomide] | 0.2 | 0.408 |  |  |  |  |  |  |  |  |  |  |  | 
2 | COC(=O)Nc1nc2ccc(C(=O)c3ccccc3)cc2[nH]1 [MBZ, Mebendazole] |  |  | significantly less positive | reduction of these proteins in most cases | inhibits growth and proliferation | elevated | did not differ significantly | 53 days | significantly less positive | reduction of these proteins in most cases | inhibits growth and proliferation | reduces the formation of polyps | 6.00 to 6.96 | 53 days
